Experimental data as given in PMC4589238, “Acute Biphasic Effects of Ayahuasca” (PLoS ONE, 2015).
Read-outs that look alike come from different tables or passages of the source.

What was measured:
[1] = Plasma concentrations of ayahuasca compounds and metabolites after oral ayahuasca (LC/MS/MS); type: in vivo, human; parameters: AUC (mean ± sd): unit not given here; conditions: for Detection in plasma samples: any plasma sample after oral ayahuasca; for Cmax / Tmax: both sexes, human, in vivo; for Cmax: po
Text: A sample of six liters of "Hoasca" was donated by the União do Vegetal (UDV) church in Brazil for the specific purpose of use in this study. Quantification of the main compounds in the brew was done with liquid chromatography-electrospray ionization-tandem mass spectrometry (LC/MS/MS). The screening included the following compounds: DMT, DMT‐N‐oxide (DMT-NO), N‐methyltryptamine (NMT), indoleacetic acid (IAA), 5‐hydroxy‐DMT (5-OH-DMT, or bufotenin), 5‐methoxy‐DMT (5-MeO-DMT), Harmine, Harmol, Harmaline, Harmalol, THH, 7‐hydroxy‐tetrahydroharmine (THH-OH), and 2‐methyl‐tetrahydro‐beta‐carboline (2-MTHBC). The original liquid volume was then reduced to 50% using a rotary evaporator to decrease the amount of liquid intake.
Blood was collected in sterile EDTA containing tubes. Ten blood samples (3 mL each) were collected every 25 minutes, starting 25 minutes before ayahuasca ingestion and ending 200 minutes after ingestion (in a total of ten samples for each individual). Blood was collected by a professional nurse, with a catheter that remained in place during the entire time of the study. Each tube was carefully and slowly turned upside-down three times and then stored at 0°C until all ten samples were collected. Blood samples were then centrifuged at 2000 rpm for 10 min at 4°C and the resulting plasma immediately collected and frozen at -80°C. The frozen plasma samples were stored at -80°C until shipped on dry ice to USA for analysis according to [31]. Compounds included in this screening were DMT, DMT-NO, NMT, IAA, 5-OH-DMT (bufotenin), 5-MeO-DMT, Harmine, Harmol, Harmaline, Harmalol, THH, THH-OH and 2-MTHBC.
Two volunteers opted out of blood collection, and data from one volunteer was discarded due to high hemolysis in the blood samples. Therefore data were available from 16 volunteers. Maximum plasma Concentration (Cmax), Time for maximum plasma concentration (Tmax) and area under the curve (AUC) of ten identified compounds are summarized in Table 2. […] No significant differences were found between men and women for any of the identified compounds in blood. […] There were no significant correlations between time to vomit and Cmax or AUC.

healthy volunteers = assay: Association between plasma concentration and EEG spectral changes (generalized linear models); type: in vivo, human; conditions: for Cohen's d, plasma concentration vs alpha band: left frontal electrodes; for Clusters between plasma concentration and EEG spectra: delta, theta and beta frequency bands
Experimental: Relationships between plasma concentration of identified compounds and spectral changes in the six frequency bands evaluated were calculated by fitting generalized linear models (glmfit function in MATLAB) for each compound and frequency band. This analysis was followed by the non-parametric cluster based correction with 5000 permutations.
Results were considered statistically significant when p <0.05. Effect sizes are also reported, using Partial eta squared (partial η^2) for the main frequency clusters and Cohen’s d for the generalized linear models.

MAO-A = tested on: MAO-A; parameters: method as in PMID 19879939; conditions: cited from earlier work
human subjects = conditions: cited from earlier work
5HT-2A receptors = conditions: cited from earlier work
[2] = cited from earlier work
[3] = plasma, 16 volunteers, oral ayahuasca
[4] = plasma, 16 volunteers, oral ayahuasca, sampling to 200 min
[5] = one right central electrode (C6)
[6] = plasma, 16 volunteers, oral ayahuasca, sampling to 200 min, read-out: Cmax (mean ± sd)
[7] = from ayahuasca ingestion, group average curve, read-out: Time of peak plasma level in the group average (converted)
[8] = plasma, 16 volunteers, oral ayahuasca, read-out: Tmax (mean ± sd) (converted)
[9] = left centro-parieto-occipital electrodes
[10] = left parieto-occipital electrodes
[11] = one large widespread bilateral cluster
[12] = plasma, 16 volunteers, oral ayahuasca, read-out: Cmax (min—max)
[13] = bilateral parieto-occipital electrodes
[14] = left fronto-central electrodes (F7 and FC5)
[15] = left fronto-temporal electrodes

CC1NCCc2c1[nH]c1cc(O)ccc21 (centres unmarked) [THH-OH, 7‐hydroxy‐tetrahydroharmine]
AUC (min—max) [1, 3]: 0.00 to 284.32 g·min/mL | Cmax (min—max) [1, 3]: 0.00 to 111.01 ng/mL | Tmax (mean ± sd) [1, 3]: 1.994 ± 0.8978 h | Cmax (mean ± sd) [1, 4]: 22.58 ± 26.76 ng/mL | Clusters between plasma concentration and alpha band (healthy volunteers): No significant clusters | Cohen's d, plasma concentration vs delta band power increase (healthy volunteers; one left frontal electrode (F7)): 0.2644 | Cohen's d, plasma concentration vs delta band power increase (healthy volunteers; [5]): 0.0269 | Cohen's d, plasma concentration vs theta band power increase (healthy volunteers; [5]): 0.2630 | Clusters between plasma concentration and slow-gamma frequency band (healthy volunteers; slow-gamma band): No significant clusters

CN(C)CCc1c[nH]c2ccc(O)cc12 [5-OH-DMT, 5‐hydroxy‐DMT]
Detection in plasma samples [1]: never detected

O=C(O)Cc1c[nH]c2ccccc12 [IAA, indoleacetic acid]
AUC (min—max) [1, 3]: 1237.81 to 7726.25 g·min/mL | Cmax (min—max) [1, 3]: 61.35 to 1674.57 ng/mL | Tmax (mean ± sd) [1, 3]: 2.9167 ± 0.6632 h | Cmax (mean ± sd) [1, 4]: 717.72 ± 454.50 ng/mL | Clusters between plasma concentration and beta band (healthy volunteers): No significant clusters | Clusters between plasma concentration and delta band (healthy volunteers): not significant | Cohen's d, plasma concentration vs alpha band (healthy volunteers): 0.2888 | Cohen's d, plasma concentration vs slow-gamma (healthy volunteers; right centro-frontal electrodes (F2, FCz, FC2, FC4)): 0.0052 | Cohen's d, plasma concentration vs fast-gamma power increase (healthy volunteers; right frontal electrodes): 0.0737 | Cohen's d, plasma concentration vs fast-gamma (healthy volunteers; right parietal electrodes (CP2, Pz, P2, P4)): 0.1428

COc1ccc2c(c1)[nH]c1c(C)nccc12 [Harmine]
Cmax [1, 6]: 110 ± 138 ng/mL | Tmax [1, 7]: 0.833 h | Tmax [1, 8]: 2.5 h | AUC (min—max) [1, 3]: 21.37 to 2325.28 g·min/mL | Clusters between plasma concentration and EEG spectra (healthy volunteers): did not show any significant clusters | Cohen's d, plasma concentration vs slow-gamma power increase (healthy volunteers; left centro-frontal electrodes (F7, FC5, C5 and C3)): 0.2028 | Cohen's d, plasma concentration vs alpha band power decrease (healthy volunteers; [9]): 0.0297 | Cohen's d, plasma concentration vs slow-gamma power increase (healthy volunteers; [10]): 0.1797 | Cohen's d, plasma concentration vs fast-gamma power increase (healthy volunteers; [11]): 0.0312 | Cohen's d, plasma concentration vs slow-gamma power increase (healthy volunteers; right frontal electrodes): 0.0024 | Cohen's d, plasma concentration vs slow-gamma power increase (healthy volunteers; right parietal electrodes): 0.1208 | Potency at inhibiting MAO-A relative to MAO-B (MAO-A): 10,000 fold | Effects in humans (human subjects; 120 mg orally): barely-perceptible sedative effects | Effects in humans (human subjects; 10 to 20 mg/kg i.m.): effects qualitatively similar to LSD or mescaline | Psychoactive dose (human subjects; i.v.): ≥ 200 mg | Affinity for 5HT-2A receptors (5HT-2A receptors): moderate affinity

CNCCc1c[nH]c2ccccc12 [NMT, N‐methyltryptamine]
Cmax [1, 6]: 3.1 ± 2.12 ng/mL | Cmax [1, 12]: 0.57 to 7.56 ng/mL | Tmax [1, 8]: 2.03 h | AUC (min—max) [1, 3]: 1.52 to 21.69 g·min/mL | Clusters between plasma concentration and alpha band (healthy volunteers): No significant clusters | Cohen's d, plasma concentration vs slow-gamma power increase (healthy volunteers; bilateral frontal electrodes): 0.0822 | Cohen's d, plasma concentration vs fast-gamma power increase (healthy volunteers; bilateral fronto-central electrodes): 0.0290 | Cohen's d, plasma concentration vs fast-gamma power increase (healthy volunteers; [13]): 0.0911 | Clusters between plasma concentration and delta band (healthy volunteers): not significant | Cohen's d, plasma concentration vs beta power increase (healthy volunteers; left frontal electrodes (F7, AF7, AF3, AFz)): 0.0863 | Cohen's d, plasma concentration vs slow-gamma power increase (healthy volunteers; occipital electrodes (O1, Oz and O2)): 0.2579 | Cohen's d, plasma concentration vs slow-gamma power increase (healthy volunteers; right parietal electrodes): 0.1538

CN1CCc2c([nH]c3ccccc23)C1 [2-MTHBC, 2‐methyl‐tetrahydro‐beta‐carboline]
Detection in plasma samples [1]: never detected

Cc1[nH]ccc2c1[nH]c1cc(=O)ccc12 [Harmol]
Cmax [1, 6]: 85 ± 93.6 ng/mL | Cmax [1, 12]: < 319 ng/mL | Tmax [1, 8]: 2.47 h | AUC (min—max) [1, 3]: 0.00 to 1550.35 g·min/mL | Clusters between plasma concentration and EEG spectra (healthy volunteers): did not show any significant clusters | Cohen's d, plasma concentration vs alpha band power decrease (healthy volunteers; [9]): 0.0556 | Cohen's d, plasma concentration vs alpha band (healthy volunteers): 0.3029 | Cohen's d, plasma concentration vs slow-gamma power increase (healthy volunteers; [14]): 0.1250 | Cohen's d, plasma concentration vs slow-gamma power increase (healthy volunteers; [10]): 0.2921 | Cohen's d, plasma concentration vs fast-gamma power increase (healthy volunteers; [11]): 0.0463 | Cohen's d, plasma concentration vs slow-gamma power increase (healthy volunteers; right frontal electrodes): 0.2747 | Cohen's d, plasma concentration vs slow-gamma power increase (healthy volunteers; right parietal electrodes): 0.0941

C[N+](C)([O-])CCc1c[nH]c2ccccc12 [DMT-NO, DMT‐N‐oxide]
AUC (mean ± sd) [1, 3]: 60.37 ± 57.60 | AUC (min—max) [1, 3]: 5.21 to 191.29 g·min/mL | Cmax (min—max) [1, 3]: 1.58 to 40.60 ng/mL | Tmax (mean ± sd) [1, 3]: 1.849 ± 0.6267 h | Cmax (mean ± sd) [1, 4]: 14.42 ± 12.50 ng/mL | Clusters between plasma concentration and beta band (healthy volunteers): No significant clusters | Cohen's d, plasma concentration vs fast-gamma power increase (healthy volunteers; [13]): 0.0003 | Clusters between plasma concentration and delta band (healthy volunteers): not significant | Cohen's d, plasma concentration vs fast-gamma power increase (healthy volunteers; left centro-frontal electrodes): 0.1917 | Cohen's d, plasma concentration vs slow-gamma power increase (healthy volunteers; left centro-parieto-occipital extending to right parietal electrodes): 0.0593 | Cohen's d, plasma concentration vs alpha band power decrease (healthy volunteers; left centro-parieto-occipital extending to some left frontal electrodes): 0.0610 | Cohen's d, plasma concentration vs slow-gamma power increase (healthy volunteers; right centro-temporal electrodes (C6, T8 and TP8)): 0.0052 | Cohen's d, plasma concentration vs fast-gamma power increase (healthy volunteers; right centro-temporo-frontal electrodes): 0.0269 | Cohen's d, plasma concentration vs slow-gamma power increase (healthy volunteers; right frontal electrodes): 0.0061 | Cohen's d, plasma concentration vs alpha band power decrease (healthy volunteers; right fronto-temporal electrodes (FC6, FT8 and FT10)): 0.1341

CN(C)CCc1c[nH]c2ccccc12 [DMT, N,N-dimethyltryptamine]
Cmax [1, 6]: 25.4 ± 16.8 ng/mL | Cmax [1, 12]: 2.49 to 65.9 ng/mL | Tmax [1, 7]: 1.25 h | Tmax [1, 8]: 2.21 h | AUC (min—max) [1, 3]: 9.52 to 219.10 g·min/mL | Cohen's d, plasma concentration vs fast-gamma power increase (healthy volunteers; bilateral temporo-parieto-occipital electrodes): 0.0309 | Cohen's d, plasma concentration vs alpha band power decrease (healthy volunteers; [9]): 0.0822 | Cohen's d, plasma concentration vs slow-gamma power increase (healthy volunteers; [9]): 0.0125 | Cohen's d, plasma concentration vs beta power increase (healthy volunteers; [14]): 0.1131 | Cohen's d, plasma concentration vs fast-gamma power increase (healthy volunteers; [15]): 0.0193 | Cohen's d, plasma concentration vs slow-gamma power increase (healthy volunteers; [15]): 0.0966 | Cohen's d, plasma concentration vs delta band increase (healthy volunteers; left fronto-temporal electrodes (FT9, F7 and FT7)): 0.2962 | Cohen's d, plasma concentration vs fast-gamma power increase (healthy volunteers; right frontal electrodes): 0.1366 | Cohen's d, plasma concentration vs slow-gamma power increase (healthy volunteers; right frontal electrodes): 0.0161 | Cohen's d, plasma concentration vs delta band increase (healthy volunteers; right frontal electrodes (AF4 and F2)): 0.2100

COc1ccc2c3c([nH]c2c1)[C@@H](C)NCC3 [THH, tetrahydroharmine]
Time to reach plateau of plasma level in the group average ([1]; from ayahuasca ingestion, group average curve): 150 min | AUC (mean ± sd) [1, 3]: 1262.09 ± 1270.39 | AUC (min—max) [1, 3]: 75.01 to 3762.73 g·min/mL | Cmax (min—max) [1, 3]: 22.62 to 895.70 ng/mL | Tmax (mean ± sd) [1, 3]: 3.1772 ± 0.7117 h | Cmax (mean ± sd) [1, 4]: 328.76 ± 324.86 ng/mL | Cohen's d, plasma concentration vs slow-gamma power increase (healthy volunteers; bilateral parieto-occipital cluster): 0.0656 | Clusters between plasma concentration and EEG spectra (healthy volunteers): did not show any significant clusters | Cohen's d, plasma concentration vs alpha band power decrease (healthy volunteers; left fronto-centro-parieto-occipital cluster extending to some right centro-parietal electrodes): 0.0044 | Cohen's d, plasma concentration vs slow-gamma power increase (healthy volunteers; left fronto-temporo-central electrodes): 0.0795 | Cohen's d, plasma concentration vs fast-gamma power increase (healthy volunteers; [11]): 0.0501 | Cohen's d, plasma concentration vs slow-gamma power increase (healthy volunteers; right frontal electrodes): 0.0366 | Recovery in 24 h urine as THH and THH-OH ([2]; after ingestion of ayahuasca): 9% | Half-life [2]: ~9 h | Affinity for 5HT-2A receptors (5HT-2A receptors): moderate affinity

COc1ccc2[nH]cc(CCN(C)C)c2c1 [5-MeO-DMT, 5‐methoxy‐DMT]
Detection in plasma samples [1]: never detected

CC1=NCCc2c1[nH]c1cc(O)ccc21 [Harmalol]
Cmax [1, 6]: 17.2 ± 13.6 ng/mL | Cmax [1, 12]: 3.11 to 48.5 ng/mL | Tmax [1, 8]: 2.08 h | AUC (min—max) [1, 3]: 9.91 to 204.99 g·min/mL | Clusters between plasma concentration and EEG spectra (healthy volunteers): did not show any significant clusters | Cohen's d, plasma concentration vs alpha band power decrease (healthy volunteers; left centro-parietal electrodes): 0.0673 | Cohen's d, plasma concentration vs slow-gamma power increase (healthy volunteers; [14]): 0.0707 | Cohen's d, plasma concentration vs fast-gamma power increase (healthy volunteers; [15]): 0.1479 | Cohen's d, plasma concentration vs alpha band power decrease (healthy volunteers; [10]): 0.1056 | Cohen's d, plasma concentration vs slow-gamma power increase (healthy volunteers; [10]): 0.0542 | Cohen's d, plasma concentration vs fast-gamma power increase (healthy volunteers; right frontal electrodes): 0.0785 | Cohen's d, plasma concentration vs slow-gamma power increase (healthy volunteers; right frontal electrodes): 0.001
